# Measurements taken from US10517870B2, “Aryl substituted bicycle heteroaryl compounds” (Bristol-Myers Squibb Company, priority 2015, dated 2019).
# Read-outs that look alike come from different tables or passages of the source.
# Experiments:
# Format in all cases: cell-based
# [1] = tested on: C33A (HPV−) cells; test: Cell proliferation/viability assay, C33A cells; conditions: Homo sapiens, C-33-A, 96 h
# Description: (§1) Caski (catalog number CRL-1550), SiHa (catalog number HTB-35), C33A (catalog number HTB-31), Saos-2 (ATCC HTB-85), and Hela (catalog number CCL-2) cells were obtained from the American Type Culture Collection (ATCC). The human cervical carcinoma cell lines Caski. SiHa, Hela and C33A, and the human osteosarcoma cell line Saos-2, and the human keratinocyte cell line HaCaT were cultured in Dulbecco's Modified Eagle Medium (DMEM, Invitrogen catalog number 11965-092) supplemented with 10% fetal bovine serum. The colorectal carcinoma cell line HCT-116 was cultured in Roswell Park Memorial Institute-1640 Medium (Invitrogen catalog number 11875-093) supplemented with 10% FBS. All cells were incubated at 37° C. in a humidified atmosphere with 5% CO2 in air. To establish the SCHPV-18 cell line, one million primary neonatal human foreskin keratinocytes (Invitrogen, catalog no. C-001-5C), cultured in KBM Gold-keratinocvte cell basal medium (Lonza, catalog no. 192060), were electroporated with 5 μg HPV-18 plasmid DNA (ATCC catalog no. 45152D) using the Amaxa Nucleofector II on setting T-007. Cells were co-transfected with 2 μg plasmid pZSGreen1-N1 (Clontech catalog no. 632448) encoding G418 resistance, and cells were selected for four days in 100 μg/ml G418, after which selection was removed. Cells were maintained in culture six months prior to compound testing. Integration of the HPV 18 genome was confirmed by Southern blot. Control cells transfected in parallel with pZSGreen1-N1 alone became senescent four days after selection and the culture could not be expanded. SCHPV-18 cells were maintained in E medium (Fehrmann F, Laimins L A. Human papillomavirus type 31 life cycle: methods for study using tissue culture models. Methods Mol Biol 2005; 292:317-330).
# (§2) For proliferation assays, cells were plated in white polystyrene 96-well plates (Costar catalog number 3917) for CellTiter Glo viability assays or 96-well special optics plates (Costar cat #3614) for CellTiter Blue viability assays. Cells were plated in the appropriate growth medium without antibiotics. Two hours after cell plating, a 200× compound stock diluted in DMSO was added to a final concentration of 0.5%. Plates were incubated at 37° C., for 4 days and then cell viability was assessed using either CellTiter Blue (Promega catalog number G8081) or CellTiter Glo (Promega catalog number G7572) according to the manufacturer's instructions. For the CellTiter Blue viability assay, data was collected using the SpectraMax Gemini EM (Molecular Devices) with an excitation wavelength of 530 nm and emission wavelength of 590 nm. For the CellTiter Glo viability assay, data was collected using the Envision Mulitlabel Reader (Perkin Elmer catalog number 2104-0010). To calculate IC50 and EC50 values, percent inhibition curves were fit using a four-parameter logistic formula [y=A+[…]], where A and B denote minimal and maximal % inhibition, respectively, C is the IC50 value, D is the Hill slope, and x represents compound concentration.
# (§3) Table C, below, sets out the results obtained employing various compounds of the invention tested for their effects on proliferation of such cells. Caski or SiHa cells, transformed by HPV 16, Hela cells, transformed by HPV 18, or HPV-negative control cell lines (Saos-2 or C33a) were treated with various compounds. […] Unlike the HPV-negative Saos-2 or C33a cell lines, the HPV-transformed cell lines rely on the presence of HPV for their continued proliferation. Therefore, a comparison of IC50 values from HPV-transformed cell lines with IC50 values obtained from HPV-negative cell lines can be used to test for compound selectivity.
# [2] = tested on: SiHa (HPV16+) cells; test: Cell proliferation/viability assay, SiHa cells; conditions: Homo sapiens, 96 h, 4 days
# Description: as §1, §2, §3
# [3] = tested on: Caski (HPV16+) cells; test: Cell proliferation/viability assay, Caski cells; conditions: Homo sapiens, Ca-Ski, 96 h, 4 days
# Description: as §1, §2, §3
# [4] = tested on: Saos-2 (HPV−) cells; test: Cell proliferation/viability assay, Saos-2 cells; conditions: Homo sapiens
# Description: as §1, §2, §3
# [5] = target: T1, PAR4 (Homo sapiens, UniProt Q96RI0); test: PAR4 FLIPR assay (calcium mobilization, antagonist activity) in PAR4-expressing HEK293 cells
# T1 construct: expressed in transfected cells; host or cells: HEK293 PAR4 Clone 1.2A
# T1 sequence (Q96RI0 18-385): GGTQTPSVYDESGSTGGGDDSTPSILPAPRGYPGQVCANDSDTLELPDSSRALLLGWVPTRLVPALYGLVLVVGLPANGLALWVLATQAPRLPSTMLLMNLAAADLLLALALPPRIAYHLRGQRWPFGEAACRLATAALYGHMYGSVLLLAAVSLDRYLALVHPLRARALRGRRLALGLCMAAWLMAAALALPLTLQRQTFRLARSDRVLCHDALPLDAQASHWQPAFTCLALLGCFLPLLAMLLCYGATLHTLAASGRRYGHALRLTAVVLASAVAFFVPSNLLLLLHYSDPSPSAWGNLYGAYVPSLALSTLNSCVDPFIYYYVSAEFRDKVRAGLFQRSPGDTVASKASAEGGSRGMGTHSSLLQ
# Text: The FLIPR assay is an exemplary in vitro assay for measuring the activity of the PAR4 antagonists of the present invention. In this assay, intracellular calcium mobilization is induced in PAR4 expressing cells by a PAR4 agonist and calcium mobilization is monitored.
# HEK293 cells stably expressing PAR4 were generated by a standard method of transfection of human PAR4 (F2R23) cDNA expression vector and selected based on PAR4 protein expression or mRNA expression. […] These cells also express endogenous PAR1 and can elicit calcium signal upon stimulation with PAR1 agonist peptide. Therefore, the same cells were also used to determine selectivity against PAR1 and agonist activity for both receptors. Cells from HEK293 PAR4 Clone 1.2A (BMS Arctic ID 383940) were propagated and used for calcium mobilization studies.
# FLIPR-based calcium mobilization assay in HEK293 cells was used to measure PAR4 antagonism, agonism, and selectivity against PAR1. The activity of the PAR4 antagonists of the present invention were tested in PAR4 expressing cells by monitoring H-Ala-Phe(4-F)-[…]NH2-induced intracellular calcium mobilization. Counter screens for agonist activity and PAR1 antagonist activity were also performed. Briefly, PAR1/PAR4-expressing HEK293 cells were grown in DMEM (Life Technology, Grand Island, N.Y.) containing 10% heat-inactivated FBS, 1% Penicillin-Streptomycin, 10 μg/mL blasticidin, and 100 μg/mL Zeocin at 37° C. with 5% CO2. Cells were plated overnight prior to the experiment in a black 384-well Purecoat Amine clear bottom plate (Becton Dickinson Biosciences, San Jose, Calif.) at 10,000 cells/well in 30 μL growth medium and incubated in a humidified chamber at 37° C. with 5% CO2 overnight. Prior to compound addition, the cell medium was replaced with 40 μL of IX calcium and magnesium-containing Hank's Balanced Saline Solution (HBSS) (with 20 mM HEPES) and 1:1000 diluted fluorescent calcium indicator (Codex Biosolutions, Gaithersburg, Md.). After a 30 minute incubation period at 37° C., and a further 30 minute incubation and equilibration period at room temperature, 20 μL test compound (diluted in 1×HBSS buffer) was added at various concentrations at 0.17% dimethyl sulfoxide (DMSO) final concentration. Changes in fluorescence intensity were measured using a Functional Drug Screening System (FDSS, Hamamatsu, Japan) to determine agonist activities. The cells were then incubated for 30 minutes at room temperature followed by addition of 20 μL of agonist peptide for antagonist activity measurement. […] Compound potency was derived from 11-point concentration-response curves.
# [6] = tested on: HeLa (HPV18+) cells; test: Cell proliferation/viability assay, HeLa cells; conditions: Homo sapiens, 96 h, 4 days
# Description: as §1, §2, §3
# [7] = read-out: C33A (HPV−) Proliferation IC50 (μM)
# [8] = SAOS-2, 96 h, read-out: Saos-2 (HPV−) Proliferation IC50 (μM)
# [9] = C33A, HPV-negative, 4 days, read-out: C33A (HPV−) Proliferation IC50
# [10] = 96 h, Saos-2, HPV-negative, 4 days, read-out: Saos-2 (HPV−) Proliferation IC50
SMILES,"IC50 [1, 7] [µM]",IC50 [2] [µM],IC50 [3] [µM],"IC50 [4, 8] [µM]",IC50 [5] [nM],IC50 [6] [µM],"IC50 [1, 9] [µM]","IC50 [4, 10] [µM]"
"COc1ccc(-c2cc(C#N)cc3nc(OC(F)F)cnc23)cc1 [Example 1, 3-(difluoromethoxy)-8-(4-methoxyphenyl)quinoxaline-6-carbonitrile]",6.9,1.7,2.3,7.7,1900,1.5,–,–
"COc1ccc(-c2cc(Cl)cc3nc(OC(F)F)cnc23)cc1 [Example 2, 7-Chloro-2-(difluoromethoxy)-5-(4-methoxyphenyl)quinoxaline]",54,8,10,> 100,2100,9.3,–,–
"C=Cc1cc(-c2ccc(OC)cc2)c2ncc(OC(F)F)nc2c1 [Example 3, 2-(difluoromethoxy)-5-(4-methoxyphenyl)-7-vinylquinoxaline]",> 100,–,61.9,> 100,690,–,–,–
"COC(=O)c1cc(-c2ccc(OC)cc2)c2ncc(OC(F)F)nc2c1 [Example 4, Methyl 3-(difluoromethoxy)-8-(4-methoxyphenyl)quinoxaline-6-carboxylate]",53.4,–,12.6,> 100,1000,–,–,–
"COc1ccc(-c2cc3ncc(OC(F)F)nc3cc2C(F)(F)F)cc1 [Example 7, 2-(difluoromethoxy)-6-(4-methoxyphenyl)-7-(trifluoromethyl)quinoxaline]",–,4.3,5,–,–,4.4,> 100,92.1
"COc1ccc(-c2cc(C(F)(F)F)cc3nc(OC(F)F)cnc23)cc1C(F)(F)F [Example 9, 2-(difluoromethoxy)-5-(4-methoxy-3-(trifluoromethyl)phenyl)-7-(trifluoromethyl)quinoxaline]",–,1.7,3.3,–,–,1.5,78.7,76.2
"COc1cccc(-c2cc(C(F)(F)F)cc3nc(OC(F)F)cnc23)c1 [Example 10, 2-(difluoromethoxy)-5-(3-methoxyphenyl)-7-(trifluoromethyl)quinoxaline]",–,5.1,3.9,–,–,4.4,> 99.5,55
"COc1ccc2cc(-c3cc(C(F)(F)F)cc4nc(OC(F)F)cnc34)ccc2c1 [Example 11, 2-(difluoromethoxy)-5-(6-methoxynaphthalen-2-yl)-7-(trifluoromethyl)quinoxaline]",–,2.7,2.9,–,–,2.1,> 99.5,45.9
COc1ccc(-c2cc(C(F)(F)F)cc3nc(OC(F)F)cnc23)cc1F [Example 12],–,1.3,3.2,–,–,1.1,> 99.5,14.3
"COc1cc(-c2cc(C(F)(F)F)cc3nc(OC(F)F)cnc23)cc(C(F)(F)F)c1 [Example 13, 2-(difluoromethoxy)-5-(3-methoxy-5-(trifluoromethyl)phenyl)-7-(trifluoromethyl)quinoxaline]",–,24,15.6,–,–,37,40.5,40.3
"COc1ccc(-c2cc(C(F)(F)F)cc3ncc(OC(F)F)nc23)cc1 [Example 14, 2-(difluoromethoxy)-8-(4-methoxyphenyl)-6-(trifluoromethyl)quinoxaline]",–,2.9,2.8,–,–,2.6,49.9,57.7
"COc1ccc(-c2cc(C)cc3nc(OC(F)F)cnc23)cc1C(F)(F)F [Example 16, 2-(difluoromethoxy)-5-(4-methoxy-3-(trifluoromethyl)phenyl)-7-methylquinoxaline]",–,9.4,7,–,–,9.1,> 99.5,> 99.5
"Cc1cc(-c2ccc(F)c(C(F)(F)F)c2)c2ncc(OC(F)F)nc2c1 [Example 17, 2-(difluoromethoxy)-5-(4-fluor-3-(trifluoromethyl)phenyl)-7-methylquinoxaline]",–,17.8,17.9,–,–,23.7,58.3,96.5
"Cc1cc(-c2cccc(C(F)(F)F)c2)c2ncc(OC(F)F)nc2c1 [Example 25, 2-(difluoromethoxy)-7-methyl-5-(3-(trifluoromethyl)phenyl)quinoxaline]",–,11.7,14.5,–,–,15.2,> 100,> 100
"COc1ccc(-c2cc(Br)cc3nc(OC(F)F)cnc23)cc1 [Example 27, 7-bromo-2-(difluoromethoxy)-5-(4-methoxyphenyl)quinoxaline]",–,–,–,–,2600,–,–,–
